The source of these data is ChEMBL document CHEMBL1933067, “The design, synthesis and in vitro immunosuppressive evaluation of novel isobenzofuran derivatives” (Bioorg Med Chem Lett, 2012).

Structures are written as SMILES. Bounds are passed on as bounds.

The test system of one test is T-cell. The test can be described thus: Immunosuppressive activity in mouse T-cells assessed as inhibition of concanavalin A-induced proliferation. In kind it is functional, cell-based.
Test [1] addresses Inosine-5'-monophosphate dehydrogenase 2 (Homo sapiens, UniProt P12268). The test can be described thus: Inhibition of IMPDH2.

A word on the IC50: it is the concentration that gives 50% inhibition. For the molecule `O=C(/C=C/c1ccccc1)Nc1ccc2c(c1)COC2=O`, the IC50 with T-cell is 7.24 µM.

For `O=C(/C=C/c1ccco1)Nc1ccc2c(c1)COC2=O`, the IC50 in the test with T-cell was determined as 9 µM.

Consider `O=C(/C=C/c1ccccn1)Nc1ccc2c(c1)COC2=O`, for which the IC50 in the test with T-cell turned out to be 17.9 µM.

`COc1ccc(/C=C/C(=O)Nc2ccc3c(c2)COC3=O)cc1OC`: the figures for the IC50 (in test [1]; with T-cell) were 2.1 µM and 0.029 µM, respectively.

Consider `O=C(/C=C/c1cccc(F)c1)Nc1ccc2c(c1)COC2=O`, for which the IC50 was determined as 4.5 µM in test [1] and 0.034 µM with T-cell.

For the molecule `O=C(/C=C/c1ccccc1Br)Nc1ccc2c(c1)COC2=O`, in the test on T-cell, the IC50 is over 100 µM.

On to `N#Cc1ccc(/C=C/C(=O)Nc2ccc3c(c2)COC3=O)cc1`, for which the IC50 in the test with T-cell came to 43.1 µM.

For `CC(=O)Oc1cccc(/C=C/C(=O)Nc2ccc3c(c2)COC3=O)c1`, the IC50 in test [1] turned out to be 8.8 µM; in the test with T-cell, 0.03 µM.

With `COc1cc(/C=C/C(=O)Nc2ccc3c(c2)COC3=O)cc(OC)c1OC`, in the test with T-cell, the IC50 amounted to 1.73 µM.

Turning to `COc1ccccc1/C=C/C(=O)Nc1ccc2c(c1)COC2=O`, the half-maximal inhibitory concentration (IC50) in the test with T-cell is 0.039 µM.

`COc1cc(/C=C/C(=O)Nc2ccc3c(c2)COC3=O)ccc1OC(C)=O`: the IC50 in the test on T-cell worked out at 0.136 µM.

Turning to `CC(C)c1ccc(/C=C/C(=O)Nc2ccc3c(c2)COC3=O)cc1`, in the test on T-cell, the IC50 turned out to be 1.59 µM.

Take `CC(C)(C)c1ccc(/C=C/C(=O)Nc2ccc3c(c2)COC3=O)cc1`: the IC50 in test [1] is 3.2 µM; with T-cell it was 0.72 µM.

In the case of `CC(=O)Oc1ccc(/C=C/C(=O)Nc2ccc3c(c2)COC3=O)cc1OC(C)=O`, the IC50 in test [1] turned out to be 2.8 µM; with T-cell, 0.18 µM.

In the case of `COc1cc(CCC(=O)Nc2ccc3c(c2)COC3=O)cc(OC)c1OC`, in the test with T-cell, the IC50 worked out at 7.74 µM.

`O=C(Nc1ccccc1)Nc1ccc2c(c1)COC2=O`: in the test on T-cell, the IC50 turned out to be 7.09 µM.

With `CN(C(=O)Nc1ccc2c(c1)COC2=O)c1ccccc1`, the IC50 with T-cell is over 100 µM.

On to `Cc1ccccc1NC(=O)Nc1ccc2c(c1)COC2=O`, for which the IC50 in the test with T-cell was 0.9 µM.

For the molecule `Cc1cccc(NC(=O)Nc2ccc3c(c2)COC3=O)c1`, the IC50 in the test with T-cell is 2.26 µM.

On to `Cc1ccc(NC(=O)Nc2ccc3c(c2)COC3=O)cc1`, for which the IC50 with T-cell stood at 2.67 µM.

As to `O=C(Nc1ccc(F)cc1)Nc1ccc2c(c1)COC2=O`, in the test on T-cell, the IC50 amounted to 4.19 µM.

With `O=C(Nc1ccc(Cl)cc1)Nc1ccc2c(c1)COC2=O`, the IC50 in the test with T-cell is 2.45 µM.

Regarding `O=C(Nc1ccc(I)cc1)Nc1ccc2c(c1)COC2=O`, the IC50 with T-cell came to 1.37 µM.

With `O=C(Nc1ccc2c(c1)COC2=O)NC1CCCCC1`, the IC50 in the test on T-cell came to 12.7 µM.

With `CCCNC(=O)Nc1ccc2c(c1)COC2=O`, the IC50 in the test with T-cell came out at 58.1 µM.

In the case of `O=C(Nc1ccccc1)C(=O)Nc1ccc2c(c1)COC2=O`, the IC50 in the test with T-cell was 36.1 µM.

With `CN(Cc1ccccc1)C(=O)C(=O)Nc1ccc2c(c1)COC2=O`, the IC50 with T-cell worked out at 14.3 µM.

Turning to `CC(C)(C)NC(=O)C(=O)Nc1ccc2c(c1)COC2=O`, the IC50 with T-cell was determined as 3.4 µM.

`O=C(Nc1ccc(F)cc1)C(=O)Nc1ccc2c(c1)COC2=O`: in the test with T-cell, the IC50 was determined as 0.57 µM.

In the case of `O=C(Nc1ccc(Cl)cc1)C(=O)Nc1ccc2c(c1)COC2=O`, the IC50 in the test with T-cell was determined as 2.24 µM.

With `O=C(Nc1ccc(O)cc1)C(=O)Nc1ccc2c(c1)COC2=O`, the IC50 in the test with T-cell turned out to be 5.03 µM.

Regarding `COc1ccc(NC(=O)C(=O)Nc2ccc3c(c2)COC3=O)cc1`, in the test with T-cell, the IC50 amounted to 153 µM.

As to `Cc1ccccc1NC(=O)C(=O)Nc1ccc2c(c1)COC2=O`, the IC50 in the test on T-cell was determined as 5.51 µM.

For `COc1cc(CN(C)C(=O)C(=O)Nc2ccc3c(c2)COC3=O)cc(OC)c1OC`, in the test on T-cell, the IC50 is 3.28 µM.

With `O=C(Nc1cccc([N+](=O)[O-])c1)C(=O)Nc1ccc2c(c1)COC2=O`, the IC50 in the test on T-cell worked out at 1.82 µM.

Turning to `COc1c(C)c2c(c(O)c1C/C=C(\C)CCC(=O)O)C(=O)OC2` [MYCOPHENOLIC ACID], the IC50 with T-cell was 0.28 µM.
